In brackets after ≈: the same amount, converted by molar mass.
Settings: buffer; pH 7.4; 200.0 µM

Going from `O=[N+]([O-])c1cccc2c(Cl)ccnc12` to `Cc1cc(Cl)c2ccc3ccccc3c2n1`, the solubility kinetic falls from greater than 31.3 µg/mL to less than 0.5 µg/mL.

`O=S(=O)(Nc1cccc(S(=O)(=O)N2CCCCC2)c1)c1ccc(Cl)s1` and `O=C(CN1c2cccc3cccc(c23)S1(=O)=O)N1CCCCC1` cannot be ordered by solubility kinetic: greater than 63.1 µg/mL for the first, greater than 49.6 µg/mL for the second.

First: Cn1c(-c2cccs2)[n+](C)c2ccccc21.[Cl-]
Second: O=S(=O)(c1cccs1)N1CCN(c2ccccc2)CC1
The solubility kinetic of the first is higher: greater than 39.7 µg/mL for the first, 1.4 µg/mL (≈ 4.54 µM) for the second.

First: S=C(NCc1ccco1)Nc1ccc2c(c1)OCCO2
Second: O=C(Nc1ccc(NC(=O)c2ccco2)nc1)c1cccc(F)c1
The solubility kinetic of the first is higher: greater than 43.6 µg/mL for the first, 1.9 µg/mL (≈ 5.84 µM) for the second.

Going from `COc1ccc(Nc2nc(-c3ccncc3)nc3ccccc23)cc1` to `Cc1ccccc1C(=O)Nc1cccc(NC(=O)c2ccc(F)cc2)c1`, the solubility kinetic rises from 0.6 µg/mL (≈ 1.83 µM) to 1.8 µg/mL (≈ 5.17 µM) (3-fold).

Going from `O=[N+]([O-])c1cccc(NC(=S)N2CCc3ccccc3C2)c1` to `Cc1cccc(NC(=O)CN2CCSc3ccccc32)c1`, the solubility kinetic rises from 1.3 µg/mL (≈ 4.15 µM) to 5.2 µg/mL (≈ 17.4 µM) (4-fold).

`CC(CC(=O)O)CC(=O)Nc1cc([N+](=O)[O-])ccc1O` (configuration not stated) and `Cc1cc(NC(=O)COC(=O)c2ccccc2NCCO)no1` cannot be ordered by solubility kinetic: greater than 42.3 µg/mL for the first, greater than 47.9 µg/mL for the second.

First: COc1cc2c(cc1OC)CN(C(=O)CCOc1ccccc1)CC2
Second: COc1cc2c(cc1OC)C(NC(=O)c1ccc(C)cc1)CC2=O (configuration not stated)
The solubility kinetic of the first is 6.6-fold higher: 30.3 µg/mL (≈ 88.8 µM) for the first, 4.6 µg/mL (≈ 14.1 µM) for the second.

Compared with `O=C(Nc1ccc(F)c(Cl)c1)c1cccnc1`, `Cc1ccc(C(=O)N/N=C\c2cccnc2)s1` is higher in solubility kinetic: 24.5 µg/mL (≈ 97.7 µM) for the first, greater than 36.8 µg/mL for the second.

Compared with `CCN=C1S/C(=C\c2cc(Br)c(O)c(OC)c2)C(=O)N1CC`, `COc1cccc(/C=C/c2ccccn2)c1O` is 26-fold higher in solubility kinetic: 1.3 µg/mL (≈ 3.37 µM) for the first, 34 µg/mL (≈ 150 µM) for the second.

Compared with `COc1ccccc1CNC(=O)Cc1ccccc1`, `COc1ccccc1NC(=S)N(Cc1ccccc1)Cc1cccnc1` is 1.9-fold higher in solubility kinetic: 24.7 µg/mL (≈ 96.7 µM) for the first, 45.8 µg/mL (≈ 126 µM) for the second.

Compared with `COc1ccccc1C1CCN(c2ccc([N+](=O)[O-])cn2)CC1`, `O=C(c1ccc(-c2ccc([N+](=O)[O-])cc2)o1)N1CCCCCCC1` is higher in solubility kinetic: less than 0.2 µg/mL for the first, 9.1 µg/mL (≈ 27.7 µM) for the second.

`CN1CCC(OC(=O)c2ccco2)CC1.Cl` and `CC(C)(Oc1ccc(Cl)cc1)C(=O)N1CCC(C(N)=O)CC1` cannot be ordered by solubility kinetic: greater than 36.9 µg/mL for the first, 48.7 µg/mL (≈ 150 µM) for the second.

`Clc1cc(Cl)cc(NC2=NCCS2)c1` and `Clc1ccc(CN2CCCCCC2)cc1Cl` are within 1.5-fold of each other in solubility kinetic: 8.8 µg/mL (≈ 35.6 µM) for the first, 9 µg/mL (≈ 34.9 µM) for the second.

Going from `O=S(=O)(c1cc(F)ccc1F)N1CCN(c2ncnc3ccccc23)CC1` to `O=S(=O)(c1ccccc1)N1CCN(CCc2ccccc2)CC1`, the solubility kinetic falls from 56.7 µg/mL (≈ 145 µM) to 1.7 µg/mL (≈ 5.14 µM) (33-fold).

Compared with `CCN(CC(=O)Nc1ccc(C(=O)OC)cc1)C1CCCCC1`, `CC(=O)c1ccc(NC(=O)COC(=O)c2c[nH]c3ccccc23)cc1` is 24-fold lower in solubility kinetic: 43.3 µg/mL (≈ 136 µM) for the first, 1.8 µg/mL (≈ 5.35 µM) for the second.

Compared with `CC(C)c1ccc(NS(=O)(=O)c2ccc3c(c2)oc(=O)n3C)cc1`, `CCOC(=O)c1ccc(S(=O)(=O)Nc2cc(S(=O)(=O)Nc3ccc(OC)cc3)ccc2O)cc1` is 81-fold higher in solubility kinetic: 0.9 µg/mL (≈ 2.6 µM) for the first, 72.8 µg/mL (≈ 144 µM) for the second.

`COCCn1c(C)cc(C(=O)COC(=O)CNC(=O)c2ccco2)c1C` and `CCOC(=O)c1c(-c2ccc(C)o2)csc1NC(=O)CN1CCC(C(N)=O)CC1` are within 1.5-fold of each other in solubility kinetic: 45.2 µg/mL (≈ 125 µM) for the first, 31 µg/mL (≈ 73.9 µM) for the second.

`N#CC(C#N)=C(N)Nc1cccc(Cl)c1` and `Cc1cc(Cl)ccc1C(=O)C1CCCN(C(=O)c2ccoc2)C1` (configuration not stated) are within 1.5-fold of each other in solubility kinetic: 30.7 µg/mL (≈ 140 µM) for the first, 35.7 µg/mL (≈ 108 µM) for the second.

`CC(C)CN1CCN(Cc2cccc3cccnc23)CC1CCO` (configuration not stated) and `COc1ccc(C2(NC(C)=O)CCN(Cc3cccnc3)CC2)cc1` are within 1.5-fold of each other in solubility kinetic: 37.1 µg/mL (≈ 113 µM) for the first, 40.9 µg/mL (≈ 120 µM) for the second.

`CCCCN(C(=O)Oc1ccccc1)C1CCS(=O)(=O)C1` (configuration not stated) and `O=C1CC(Cc2ccccc2)C(=O)N1c1ncccn1` (configuration not stated) cannot be ordered by solubility kinetic: greater than 46.7 µg/mL for the first, greater than 40.1 µg/mL for the second.

`Cc1cc(Nc2cccc(Cl)c2Cl)n2ncnc2n1` and `O=C(NCc1ccccn1)Nc1cccc(Cl)c1Cl` cannot be ordered by solubility kinetic: greater than 44.1 µg/mL for the first, greater than 44.4 µg/mL for the second.

`COc1ccc(S(=O)(=O)N2CC(=O)Nc3ccccc32)cc1Cl` and `CCOP(=O)(OCC)C(Nc1ccc(F)cc1)c1ccccc1` (configuration not stated) cannot be ordered by solubility kinetic: greater than 52.9 µg/mL for the first, greater than 50.6 µg/mL for the second.

`Cc1csc(Nc2nc(N)c(C(=O)Nc3cc(Cl)ccc3F)o2)n1` showed a solubility kinetic of 3.1 µg/mL (≈ 8.43 µM).
